Measurements from patent US20250154154A1 (Relay Binney Street, 2nd Floor, priority 2020, published 2025).

Assays:
[1] = target: SRC (Homo sapiens, UniProt P12931); test: SRC Biochemical Assay Protocol (microfluidic mobility shift assay, FLPeptide4 substrate)
Summary of the method: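 Recombinant SRC (0.26 nM) preincubated 30 min at RT with compound (0.0017–100 μM) and 1.5 μM FLPeptide4, then 50 μM ATP added; 90 min reaction in HEPES pH 7.4, 10 mM MgCl2, 1% DMSO, EDTA-quenched. Phosphopeptide quantified by microfluidic mobility shift; IC50 from 4-parameter logistic fit.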

[2] = system: RBE cells; test: Cell Viability Protocol (CellTiterGlo), RBE cells; assay type: cell-based; conditions: RBE or SNU-1079 cells, 72 or 120 hour, cell line and time not given
Summary of the method: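 RBE cells plated at 1200/well in RPMI 1640 with 10% FBS, incubated 24 h, then dosed with compound from DMSO stocks and incubated 72 or 120 h at 37° C. CellTiterGlo luminescence normalised to DMSO control; IC50 from 4-parameter fit.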

[3] = system: phospho-S6RP (Ser 235/236) in RBE cells; test: Cellular Proliferation Protocol (cellular phospho-S6RP HTRF), RBE cells; assay type: cell-based; conditions: 6 hours treatment, RBE or SNU-1079 cells, cell line not given
Summary of the method: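 RBE cells, 2000/well, seeded 24 h before 6 h compound treatment at 37° C. Lysates were probed with a Eu-cryptate/d2 HTRF antibody sandwich for phospho-S6RP (Ser 235/236), incubated overnight at room temperature. Signal normalised to DMSO control and IC50 fitted to a 4-parameter curve.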

Sequence of SRC (P12931 whole entry, species assumed): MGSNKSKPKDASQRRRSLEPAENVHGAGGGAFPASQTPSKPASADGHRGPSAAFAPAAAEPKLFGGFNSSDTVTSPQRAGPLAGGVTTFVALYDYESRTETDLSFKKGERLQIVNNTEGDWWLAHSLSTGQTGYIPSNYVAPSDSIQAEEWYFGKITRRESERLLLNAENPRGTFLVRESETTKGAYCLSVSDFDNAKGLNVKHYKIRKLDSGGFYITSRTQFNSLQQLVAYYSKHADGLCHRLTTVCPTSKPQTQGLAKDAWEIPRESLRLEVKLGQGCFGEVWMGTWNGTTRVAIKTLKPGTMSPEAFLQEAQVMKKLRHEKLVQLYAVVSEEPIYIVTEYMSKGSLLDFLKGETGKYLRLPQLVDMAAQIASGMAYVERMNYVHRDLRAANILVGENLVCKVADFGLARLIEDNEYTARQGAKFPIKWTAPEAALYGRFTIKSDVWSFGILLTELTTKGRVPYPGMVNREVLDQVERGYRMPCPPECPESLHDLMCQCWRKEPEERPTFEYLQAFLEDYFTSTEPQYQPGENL

Structure (SMILES) | IC50 [1] | IC50 [2] | IC50 [3]
C=CC(=O)N1CC[C@@H](N2CC(C#Cc3c(-c4ccc5c(c4)OCCO5)c4c(N)ncnc4n3C)C2)[C@@H](O)C1 [II-74] | 10 to 1000 nM | 10 to 1000 nM | 10 to 1000 nM
C=CC(=O)N1CC[C@@H](N2CC(C#Cc3c(-c4ccc(OC)c(OC)c4)c4c(N)ncnc4n3C)C2)[C@@H](O)C1 [II-76] | 10 to 1000 nM | 1000 to 10000 nM | 1000 to 10000 nM
C=CC(=O)N1CC[C@@H](N2CC(C#Cc3c(-c4ccc5c(c4)N(C)CCO5)c4c(N)ncnc4n3C)C2)[C@@H](O)C1 [II-77] | 1000 to 10000 nM | 1000 to 10000 nM | 1000 to 10000 nM
C=CC(=O)N1CC[C@H](N2CC(C#Cc3c(-c4ccc(Oc5ccccc5)c(OC)c4)c4c(N)nccc4n3C)C2)[C@H](O)C1 [II-79] | 10 to 1000 nM | 10 to 1000 nM | 10 to 1000 nM
C=CC(=O)N1CCC(N2CC(C#Cc3c(-c4ccc(Oc5cccc(C)n5)c(OC)c4)c4c(N)nccc4n3C)C2)CC1 [II-80] | 1000 to 10000 nM | 10 to 1000 nM | 1000 to 10000 nM
C=CS(=O)(=O)N1CC[C@@H](N2CC(C#Cc3c(-c4ccc(Oc5ccccc5)c(OC)c4)c4c(N)ncnc4n3C)C2)[C@@H](O)C1 [II-82] | ≤ 10 nM | ≤ 10 nM | 10 to 1000 nM
C=CC(=O)N1CCC(N2CC(C#Cc3c(-c4ccc(Cl)cc4)c4c(N)ncnc4n3CCOC)C2)CC1 [II-85] | 10 to 1000 nM | 10 to 1000 nM | 10 to 1000 nM
C=CC(=O)N1CCC(N2CC(C#Cc3c(-c4ccc(Cl)c(OC)c4)c4c(N)ncnc4n3CCOC)C2)CC1 [II-87] | 10 to 1000 nM | 10 to 1000 nM | 10 to 1000 nM
C=CC(=O)N1CCC(N2CC(C#Cc3c(-c4ccc(OC5COC5)cc4)c4c(N)ncnc4n3C(C)C)C2)CC1 [II-88] | 1000 to 10000 nM | 1000 to 10000 nM | 1000 to 10000 nM
C=CC(=O)N1CCC(N2CC(C#Cc3c(-c4ccc(Cl)c(CF)c4)c4c(N)ncnc4n3C)C2)CC1 [II-89] | 10 to 1000 nM | 10 to 1000 nM | 10 to 1000 nM
C=CC(=O)N1CCC(N2CC(C#Cc3c(-c4ccc(Cl)c(CO)c4)c4c(N)ncnc4n3C)C2)CC1 [II-90] | 10 to 1000 nM | 10 to 1000 nM | 10 to 1000 nM
C=CC(=O)N1CCC(N2CC(C#Cc3c(-c4cc(OC)c(Cl)c(OC)c4)c4c(N)ncnc4n3C)C2)CC1 [II-91] | 10 to 1000 nM | 10 to 1000 nM | 10 to 1000 nM
C=CC(=O)N1CCC(N2CC(C#Cc3c(-c4cccc(OC)n4)c4c(N)ncnc4n3C)C2)CC1 [II-92] | 10 to 1000 nM | 10 to 1000 nM | 10 to 1000 nM
C=CC(=O)N1CCC(N2CC(C#Cc3c(-c4ccc(C5CC5)c(OC)c4)c4c(N)ncnc4n3C)C2)CC1 [II-97] | 10 to 1000 nM | 10 to 1000 nM | 10 to 1000 nM
C=CC(=O)N1CCC(N2CC(C#Cc3c(-c4ccc(OC5CC5)c(OC)c4)c4c(N)ncnc4n3C)C2)CC1 [II-98] | 10 to 1000 nM | 10 to 1000 nM | 10 to 1000 nM
C=CC(=O)N1CCC(N2CC(C#Cc3c(-c4ccc(OC5CC5)cc4)c4c(N)ncnc4n3C)C2)CC1 [II-100] | 1000 to 10000 nM | 10 to 1000 nM | 10 to 1000 nM
C=CC(=O)N1CCC(N2CC(C#Cc3c(-c4ccc(C(F)(F)F)cc4)c4c(N)ncnc4n3C)C2)CC1 [II-102] | 10 to 1000 nM | 10 to 1000 nM | 10 to 1000 nM
C=CC(=O)N1CCC(N2CC(C#Cc3c(-c4ccc5c(c4)OCCO5)c4c(N)ncnc4n3C)C2)CC1 [II-104] | 10 to 1000 nM | 10 to 1000 nM | 10 to 1000 nM
C=CC(=O)N1CCC(N2CC(C#Cc3c(-c4ccc5c(c4)OCCN5C)c4c(N)ncnc4n3C)C2)CC1 [II-105] | 10 to 1000 nM | 10 to 1000 nM | 10 to 1000 nM
C=CC(=O)N1CCC(N2CC(C#Cc3c(-c4ccc(OC)c(OC)c4)c4c(N)ncnc4n3C)C2)CC1 [II-106] | 10 to 1000 nM | 10 to 1000 nM | 10 to 1000 nM
C=CC(=O)N1CC[C@H](N2CC(C#Cc3c(-c4ccc(Cl)c(C)c4)c4c(N)ncnc4n3C(C)C)C2)[C@H](F)C1 [II-111] | ≤ 10 nM | 10 to 1000 nM | 10 to 1000 nM
C=CC(=O)N1CC[C@H](N2CC(C#Cc3c(-c4ccc(Cl)c(C)c4)c4c(N)ncnc4n3C(C)C)C2)[C@H](O)C1 [II-112] | ≤ 10 nM | 10 to 1000 nM | 10 to 1000 nM

Now from value to compound, other results behind:

IC50 [1] | Structure (SMILES) | IC50 [2] | IC50 [3]
1000 to 10000 nM | C=CC(=O)N1CC[C@@H](N2CC(C#Cc3c(-c4ccc5c(c4)OCCN5C)c4c(N)ncnc4n3C)C2)[C@@H](O)C1 [II-75] | 1000 to 10000 nM | 1000 to 10000 nM
10 to 1000 nM | C=CC(=O)N1CCC(N2CC(C#Cc3c(-c4ccc(Oc5cccc(C)n5)c(OC)c4)c4c(N)ncnc4n3C)C2)CC1 [II-81] | 10 to 1000 nM | 10 to 1000 nM
≤ 10 nM | C=CS(=O)(=O)N1CCC(N2CC(C#Cc3c(-c4ccc(Oc5ccccc5)c(OC)c4)c4c(N)ncnc4n3C)C2)CC1 [II-83] | 10 to 1000 nM | 10 to 1000 nM
≤ 10 nM | C=CC(=O)N1CCC(N2CC(C#Cc3c(-c4ccc(Cl)cc4)c4c(N)ncnc4n3C(C)C)C2)CC1 [II-84] | 10 to 1000 nM | 10 to 1000 nM
≤ 10 nM | C=CC(=O)N1CCC(N2CC(C#Cc3c(-c4ccc(Cl)c(OC)c4)c4c(N)ncnc4n3C(C)C)C2)CC1 [II-86] | 10 to 1000 nM | ≤ 10 nM
1000 to 10000 nM | C=CC(=O)N1CCC(N2CC(C#Cc3c(-c4cccc5c4cnn5C)c4c(N)ncnc4n3C)C2)CC1 [II-93] | 1000 to 10000 nM | 1000 to 10000 nM
10 to 1000 nM | C=CC(=O)N1CCC(N2CC(C#Cc3c(-c4ccc(Cl)c(C)c4)c4c(N)ncnc4n3C)C2)CC1 [II-94] | 10 to 1000 nM | 10 to 1000 nM
≤ 10 nM | C=CC(=O)N1CCC(N2CC(C#Cc3c(-c4ccc(Cl)c(O)c4)c4c(N)ncnc4n3C)C2)CC1 [II-95] | 10 to 1000 nM | 10 to 1000 nM
10 to 1000 nM | C=CC(=O)N1CCC(N2CC(C#Cc3c(-c4ccc(Cl)c(F)c4)c4c(N)ncnc4n3C)C2)CC1 [II-96] | 10 to 1000 nM | 10 to 1000 nM
10 to 1000 nM | C=CC(=O)N1CCC(N2CC(C#Cc3c(-c4ccc(C5CC5)cc4)c4c(N)ncnc4n3C)C2)CC1 [II-99] | 10 to 1000 nM | 10 to 1000 nM
10 to 1000 nM | C=CC(=O)N1CCC(N2CC(C#Cc3c(-c4ccc(OC(C)C)c(OC)c4)c4c(N)ncnc4n3C)C2)CC1 [II-101] | 10 to 1000 nM | 10 to 1000 nM
10 to 1000 nM | C=CC(=O)N1CCC(N2CC(C#Cc3c(-c4ccc(OC(F)(F)F)cc4)c4c(N)ncnc4n3C)C2)CC1 [II-103] | 10 to 1000 nM | 10 to 1000 nM
1000 to 10000 nM | C=CC(=O)N1CCC(N2CC(C#Cc3c(-c4ccc5c(c4)N(C)CCO5)c4c(N)ncnc4n3C)C2)CC1 [II-107] | 1000 to 10000 nM | 1000 to 10000 nM
≤ 10 nM | C=CC(=O)N1CCC(N2CC(C#Cc3c(-c4cccc5c4OCO5)c4c(N)ncnc4n3C(C)C)C2)C(O)C1 (stereo not drawn) [II-108] | ≤ 10 nM | ≤ 10 nM
≤ 10 nM | C=CC(=O)N1CC[C@H](N2CC(C#Cc3c(-c4cccc5c4OCO5)c4c(N)ncnc4n3C(C)C)C2)[C@H](F)C1 [II-110] | 10 to 1000 nM | ≤ 10 nM
≤ 10 nM | C=CC(=O)N1CC[C@H](N2CC(C#Cc3c(-c4ccc(Cl)c(C)c4)c4c(N)ncnc4n3CC)C2)[C@H](O)C1 [II-113] | 10 to 1000 nM | 10 to 1000 nM
